Experimental findings from patent US12239643B2, “Therapeutic agent for inflammatory diseases, autoimmune diseases, fibrotic diseases, and cancer diseases” (MEIJI SEIKA PHARMA CO., LTD., priority 2018, dated 2025) are described below.

Molecules are shown by their SMILES. Where two headings read alike, the source gives them in different places.

Assay [1] deals with PDE4. Nature of the assay: Evaluation of PDE4 inhibitory activity, scintillation proximity assay. Type of assay: biochemical. The conditions noted are these: for PDE4 inhibitory activity: summary in words of Tables 57 to 69. In a few lines:
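IC50 was derived from inhibition curves, referenced to an enzyme-free blank and a DMSO-only control. Compound, PDE4 preparation and tritiated cAMP reacted 120 min at RT in Tris-HCl buffer (pH 7.4) with MgCl2, EGTA and BSA; YSi-SPA beads with ZnSO4 bound product before scintillation counting.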

Assay [2] relates to TNFα. As to the kind of experiment: Cytokine suppression using whole human blood: TNFα (lipopolysaccharide stimulus). Type of assay: cell-based. The conditions noted are these: read-out: TNFα Inhibitory Activity, Human Whole Blood (Test Example 3).
Assay [3] concerns oxazolone-induced auricle edema, BALB/c mice. As to the kind of experiment: Mouse delayed type hypersensitivity (DTH) model (topical). Type of assay: in vivo. Conditions: 20 μL applied to auricle, 24 hours after application. The protocol:
Evaluation was carried out using female BALB/c mice (7 to 8 weeks of age). First, the hair of the abdomen of the mice was treated with a hair clipper, and then 150 μL of a 3% oxazolone acetone/ethanol solution was applied to the abdomen as a hapten. Five days later, 20 μL/ear of a 1% oxazolone.acetone/ethanol solution was applied to the outer surface of the auricle of both ears of the mouse to induce inflammation. Thirty minutes after the start of inflammation induction, 20 μL of the test compound dissolved in an acetone/ethanol solution was applied to the auricle. A 1% oxazolone was not applied to the blank. The control was one in which 1% oxazolone was applied and only an acetone/ethanol solution was applied without using the test compound. The auricle thickness 24 hours after application of the test compound was measured with a dial thickness gauge, and the value obtained by subtracting the blank value was used to calculate the edema suppression rate by the following formula. Edema Suppression Rate (%)={1−(Value at Addition of Each Test Compound−Blank Value)/(Control Value−Blank Value)}×100 The measurement results obtained by measuring the edema suppression rate at the time of topical administration of each test compound by the above method were evaluated in accordance with the following evaluated basis; A: 60% or more, B: 40% or more and less than 60%, and C: less than 40%.

In assay [4] the test system is TGF-β. As to the kind of experiment: TGF-β inhibitory activity using THP1 cells differentiated into macrophages. Conditions: Homo sapiens, read-out: TFG-β Inhibitory Activity (Test Example 6). Type of assay: cell-based. The protocol:
The TGF-β inhibitory activity was measured using THP1 cells as follows. First, THP1 cells were seeded on a 24-well culture plate at […], and culture was carried out overnight at 37° C. and 5% CO2 in RPMI-1640 medium (containing 10% fetal bovine serum, penicillin, and streptomycin) supplemented with 100 nM phorbol myristate acetate. After that, the cells were differentiated into macrophages by changing to RPMI-1640 medium without phorbol myristate acetate, followed by further culture at 37° C. under 5% CO2 overnight. Next, the THP1 culture plate was washed once with PBS(−) 1 mL/well, and then the test compound and lipopolysaccharide (final concentration 1 μg/mL) were added, followed by culture at 37° C. under 5% CO2 for about 7 hours. After culturing, the entire amount of the medium was collected, and the amount of TGF-β in the centrifuged supernatant was quantified by the sandwich ELISA method. The non-addition of lipopolysaccharide was used as a blank, and the control was obtained by adding only dimethyl sulfoxide instead of the test compound, and the inhibition rate of the test compound against the control was calculated by the following formula. Inhibition Rate (%)={1−(Value at Addition of Each Test Compound−Blank Value)/(Control Value−Blank Value)}×100
In addition, the TGF-β inhibitory activity (concentration for the inhibition rate of 50%) of the test compound was calculated from the inhibition curves based on the inhibition rate for various concentrations of the test compound.
The measurement results obtained by measuring the TFG-β inhibitory activity (50% inhibitory concentration) of the test compounds by the above method were evaluated in accordance with the following evaluated basis; A: less than 1 μM, and B: 1 μM or more.

[5] abbreviates: finer grading of compounds rated A in Evaluation 1, read-out: PDE4 Inhibitory Activity (Evaluation 2).
The mark [6] stands for this setting: scintillation proximity assay, read-out: PDE4 Inhibitory Activity (Evaluation 1; concentration for the inhibition rate of 50%).
[7] abbreviates: Homo sapiens, human whole blood.
The mark [8] stands for this setting: THP-1, THP1 cells differentiated into macrophages, lipopolysaccharide 1 μg/mL, about 7 hours.

Regarding `CC(O)C(F)(F)Oc1ccc(-c2nccs2)c2oc(N3CC4CC(C3)N4)nc12` (single isomer, unassigned) [Example 252, 1-((2-(3,6-Diazabicyclo[3.1.1]heptan-3-yl)-7-(thiazol-2-yl)benzo[d]oxazol-4-yl)oxy)-1,1-difluoropropan-2-ol], the IC50 in assay [1] (setting [5]) is at most 1 nM; in assay [1] (setting [6]) it was below 100 nM; in assay [2] (human whole blood), below 100 nM. Besides, the PDE4 inhibitory activity result in assay [1] was “particularly excellent”. The “Mouse DTH Model (Test Example 11), Topical: edema suppression rate” value (“Mouse DTH Model” for short) in assay [3] was “B (B: 40% or more and less than 60%)”.

Turning to `FC(F)(F)Oc1ccc(-c2nccs2)c2oc(N3CC4CC(C3)N4)nc12` [Example 29, 2-(3,6-Diazabicyclo[3.1.1]heptan-3-yl)-7-(thiazol-2-yl)-4-(trifluoromethoxy)benzo[d]oxazole], the IC50 in assay [1] (setting [5]) was 1 to 11 nM; in assay [1] (scintillation proximity assay, class symbols of Evaluation 1, read-out: PDE4 Inhibitory Activity (concentration for the inhibition rate of 50%, IC50), Evaluation 1) it was below 100 nM; in assay [2] (setting [7]), below 100 nM; in assay [4] (setting [8]) it was below 1000 nM. Further, in assay [1], the PDE4 inhibitory activity entry is given as “particularly excellent”. In addition, in assay [3], the “Mouse DTH Model” value is “A (A: 60% or more)”.

As to `CC(C)(O)C(F)(F)Oc1ccc(-c2nccs2)c2oc(N3CC4CC(C3)N4)nc12` [Example 248, 1-((2-(3,6-Diazabicyclo[3.1.1]heptan-3-yl)-7-(thiazol-2-yl)benzo[d]oxazol-4-yl)oxy)-1,1-difluoro-2-methylpropan-2-ol], the IC50 was at most 1 nM in assay [1] (setting [5]), below 100 nM in assay [1] (setting [6]), below 100 nM in assay [2] (setting [7]) and below 1000 nM in assay [4] (setting [8]). Besides, in assay [1], the PDE4 inhibitory activity entry was “particularly excellent”. Further, in assay [3], the “Mouse DTH Model” value is reported as “A (A: 60% or more)”.

With `CCOc1cc([C@@H](CS(C)(=O)=O)N2C(=O)c3cccc(NC(C)=O)c3C2=O)ccc1OC` [apremilast, reference compound], the IC50 is 11 to 100 nM in assay [1] (setting [5]); above 500 nM in assay [2] (Homo sapiens); above 1000 nM in assay [4] (THP-1, 7 h).
